This note sets out measurements from patent US20260130894A1, “COMPOSITION COMPRISING ISOQUINOLINE DERIVATIVE AS ACTIVE INGREDIENT FOR PREVENTION OR TREATMENT OF PARKINSON'S DISEASE” (ALTMEDICAL CO., LTD., priority 2022, published 2026).

Assay [1] relates to BEAS-2B cell line, in which PINK1 was knocked down. Briefly: Mitophagy activity in PINK1 knockdown (shPINK1) BEAS-2B cells (FACS). It counts as cell-based, human. From the text: In this example, it was confirmed whether the mitophagy activation function of the isoquinoline derivative according to the present invention is dependent on the PINK1-Parkin pathway. […]
In the following example, it was confirmed whether the novel isoquinoline derivative according to the present invention has a therapeutic effect of preventing or improving Parkinson's disease. Most of all, it was confirmed whether the treatment with the isoquinoline derivative improves mitochondrial dysfunction of a Parkinson's disease cell model. To this end, first, the induction of mitophagy by CD1-012 was verified. […] In addition, to analyze whether the mitophagy-promoting activity of CD1-012 is dependent on PINK1, PINK1 expression was inhibited (using shPNIK1) in BEAS-2B cells, which is a human normal lung cell line expressing a mitochondrial fluorescent protein, and mitophagy activity was analyzed by flow cytometry (FACS).

The subject of assay [2] is PINK1-deficient Drosophila (B9). Briefly: Mitochondrial function in Drosophila model of Parkinson's disease. Type of assay: in vivo. The method, then:
In this example, to further verify the effect of the compound of the present invention (CD1-012) on improving mitochondrial dysfunction, a Drosophila model of Parkinson's disease was used. To this end, after administering CD1-012 to PINK1 gene-deficient Drosophila, mitochondrial function was analyzed. […] As a result, the number of damaged mitochondria (with abnormally swollen morphology) observed in the PINK1-deficient Drosophila was reduced in the CD1-012-treated group as compared to an untreated control (FIG. 9A). […] In addition, after 2 weeks of CD1-012 administration, it could be observed that the ATP production capacity of the brain tissue of the PINK11-deficient Drosophila was restored (FIG. 9C).

Assay [3] concerns mitochondria from the substantia nigra of the mice. Briefly: Mitochondrial function in substantia nigra of MPTP mouse model (TMRM, ATP production). It counts as in vivo. The method, then:
Subsequently, it was confirmed that the compound CD1-012 of the present invention has an effect of improving mitochondrial dysfunction using an animal model of Parkinson's disease. To this end, after separating mitochondria from the substantia nigra of the mice undergoing the behavioral experiment in Example 4, the membrane potential of mitochondria was analyzed through TMRM (100 nM, 37° C., 30 min) fluorescent staining, and the mitochondrial function was analyzed by measuring ATP production (analyzed for 5 mice per group).

For assay [4], the system named is dopaminergic neurons in the substantia nigra. Briefly: Number of dopaminergic neurons in substantia nigra of MPTP mouse model (TH immunochemical staining). It counts as in vivo. The conditions noted are these: MPTP mice administered CD1-012, TH staining (FIGS. 13A and 13B). The method, then: Subsequently, it was confirmed whether CD1-012 administration can inhibit dopaminergic neuron death in the substantia nigra of the animal model of Parkinson's disease. To this end, the number of dopaminergic neurons was measured by performing TH immunochemical staining on the substantia nigra of the mice undergoing the behavioral experiment in Example 4.

With `Oc1cc2c(cc1O)-c1cc3ccc(O)c(O)c3c[n+]1CC2` [CD1-012, 2,3,9,10-tetrahydroxy-5,6-dihydroisoquinolino[3,2-a]isoquinolin-7-ium bromide], the “mitophagy-promoting activity compared with CCCP (10 μM)” value in assay [1] (20 μM, BEAS-2B, FACS (FIG. 8B)) is “mitophagy-promoting activity at a level similar to that of CCCP”. In addition, the “mitophagy-promoting activity when PINK1 gene expression was inhibited” value in assay [1] (20 μM, shPINK1 BEAS-2B, FACS (FIG. 8B)) is reported as “mitophagy-promoting activity was not inhibited”. Besides, the “mitophagy activation in PINK1 knockdown cell line (shPINK1) compared to control cell line (shNT)” value in assay [1] (CCCP 10 μM, CD1-012 15 μM, 18 hours (FIG. 7)) is on record as “did not show a significant difference”. The “mitochondrial ROS in brain tissue (DCF-DA staining)” value in assay [2] (1 mM for 2 weeks (FIG. 9B)) is on record as “significantly inhibited”. The “number of damaged mitochondria (abnormally swollen morphology) in dopaminergic neurons compared to untreated control” value in assay [2] (1 mM for 2 weeks, brain tissue (FIG. 9A)) was “reduced”. Further, in assay [2] (2 weeks of administration (FIG. 9C)), the “ATP production capacity of brain tissue” value is given as “restored”. Also, the “ATP synthesis capacity of mitochondria in substantia nigra” value in assay [3] (MPTP mice coadministered CD1-012 (FIG. 12B)) was “restoration”. In addition, in assay [3] (MPTP mice coadministered CD1-012, TMRM (FIG. 12A)), the “membrane potential of mitochondria in substantia nigra” value was “restoration”. Further, the “number of dopaminergic neurons in substantia nigra” value in assay [4] was “restored to a level similar to the control”.
